Experimental data reported in PMC9032381 (Diagnostics, 2022).
Several values for one entry are separate records, joined by “and”; a condition that tells them apart may be missing. Identical values can stand only once. Like-named read-outs stand apart in the source and are kept apart here. Blank lines part the entries; values can stand above or below the compound they belong to.

[1] = measured, listed as 18F-Afatinib

Active metabolite exposure (cited): 10 % AUC
SMILES: C=CC(=O)Nc1cc(Nc2nccc(-c3c[nH]c4ccccc34)n2)c(OC)cc1N(C)CCN(C)C [AZ5104]
Active metabolite potency relative to osimertinib (OSI) (cited): higher

Active metabolite exposure (cited): 10 % AUC
SMILES: C=CC(=O)Nc1cc(Nc2nccc(-c3cn(C)c4ccccc34)n2)c(OC)cc1N(C)CCNC [AZ7550]
Active metabolite potency relative to osimertinib (OSI) (cited): as OSI

Active metabolite exposure (cited): 10 % AUC
SMILES: C#Cc1cccc(Nc2ncnc3cc(OCCO)c(OCCOC)cc23)c1 [OSI413]

Second part, the compound before the results:

SMILES: CN(C)C/C=C/C(=O)Nc1cc2c(Nc3ccc(F)c(Cl)c3)ncnc2cc1O[C@H]1CCOC1 [Afatinib, reference compound]
AUC dose normalized (cited): 23 µM·h
Active metabolites (cited): None
Ka (cited): 0.252 h⁻¹
Strength of basicity (cited): Strong
Target Ctrough (cited): 50 nM
Time to Css (cited): 8 days

SMILES: C#Cc1cccc(Nc2ncnc3cc(OCCOC)c(OCCOC)cc23)c1 [Erlotinib, reference compound]
AUC dose normalized (cited): 207 µM·h
Cmin at Css (cited): 2567 nM
Ka (cited): 0.949 h⁻¹
Metabolism Liver (cited): ~98%
Renal extraction, unchanged (cited): < 2%
Strength of basicity (cited): Weak
Target Ctrough (cited): 1271 nM
Time to Css (cited): 7 to 8 days

SMILES: C#Cc1cccc(Nc2ncnc3cc(OCCOC)c(OCCO)cc23)c1 [OSI-420]
Active metabolite exposure (cited): 10 % AUC

SMILES: C=CC(=O)Nc1cc(Nc2nccc(-c3cn(C)c4ccccc34)n2)c(OC)cc1N(C)CCN(C)C [Osimertinib, reference compound]
AUC dose normalized (cited): 75 µM·h
Cmin at Css (cited): 417 nM
Metabolism Liver (cited): ~99%
Renal extraction, unchanged (cited): 2%
Strength of basicity (cited): Strong
Target Ctrough (cited): 332 nM
Time to Css (cited): 15 days

SMILES: C=CC(=O)Nc1cc(Nc2nccc(-c3cn([11CH3])c4ccccc34)n2)c(OC)cc1N(C)CCN(C)C [^11C-osimertinib]
parent fraction, initial decline (drop to) (measured): 50%
parent fraction, plateau (measured): 28–29%

SMILES: CN(C)C/C=C/C(=O)Nc1cc2c(Nc3ccc([18F])c(Cl)c3)ncnc2cc1OC1CCOC1 (stereo not drawn) [^18F-afatinib]
SUV Aorta (blood SUV) (measured): 0.5 (±0.1)
SUV Brain (measured): 0.04 (0.01)
SUV Kidney (measured): 3.5 (0.7)
SUV Liver (measured): 11.8 (2.2)
SUV Lung (measured): 1.3 (0.5)
SUV Spleen (measured): 6.8 (1.0)
SUV Vertebra (measured): 2.4 (0.8)
SUV-AUC Liver (measured): 731.5 (87.4) MBq/mL and seconds
SUV-AUC Lung (measured): 98.5 (16.5) MBq/mL and seconds
TBR Brain (measured): 0.08 (0.03)
TBR Kidney (measured): 6.9 (1.8)
TBR Liver (measured): 23.3 (6.2)
TBR Lung (measured): 2.5 (1.2)
TBR Spleen (measured): 13.2 (2.3)
TBR Vertebra (measured): 4.8 (2.0)
TBR-AUC Liver (measured): 747.7 (426.3) TBR and seconds
TBR-AUC Lung (measured): 90.9 (37.9) TBR and seconds
parent fraction (measured): 70% and 35%
SUV Aorta (blood SUV) [1]: 0.5 (0.1)
SUV Tumor [1]: 1.8 (1.3) and 1.6 (0.1)
TBR Tumor [1]: 3.6 (2.4) and 3.3 (1.0)
TBR-AUC Tumor [1]: 150.7 (9.1) TBR and seconds and 113.0 (44.8) TBR
